Assay results from patent US20230263817A1, “HIGH DOSE NICOTINAMIDE ADENINE DINUCLEOTIDE (NAD) PRECURSOR REGIMENS FOR REDUCTION OF INFLAMMATION IN HUMAN PATIENTS WITH PREEXISTING INFLAMMATION” (University of Washington, priority 2021, published 2023).

What was measured:
healthy PBMCs = experiment: Seahorse Mito Stress Test (OCR) of healthy PBMCs after 4-hour in vitro treatment; type: cell-based, human
Protocol: PBMC and Monocyte isolation. 30-60 ml of fasting blood was collected into EDTA-containing Vacutainers (BD Mfr #364606). Blood then was diluted (1:1) with RPMI medium (Corning; Cat #17-105-CV) and applied to Histopaque gradient medium (Sigma-Aldrich; Cat #10771) using SepMate-50 (STEMCELL Technologies), and centrifuged at 1200 g for 10 minutes. Top layer contained the enriched peripheral blood mononuclear cells (PBMCs) which were collected and followed by centrifugation at 300 g for 10 minutes. The pellet was resuspended with ACK lysis buffer (Gibco; Cat. A1049201) and incubated at room temperature for 5 minutes to remove residual red blood cells. Next, the enriched PBMCs were washed twice with RPMI medium. All PBMC samples were subjected to the baseline Seahorse Mito Stress Test. When available, the remaining cells were used for cytokine mRNA quantitative PCR and in vitro assays. For monocyte isolation, a magnetic bead-based negative-selection monocyte isolation kit (Miltenyi Biotec, 130-096-537) was used per the manufacturer's instructions. Briefly, antibody-conjugated magnetic bead solution was added to isolated PBMCs resuspended in RPMI containing 0.5% BSA and incubated for 20 minutes at 4° C., followed by magnetic column binding and elution. The procedure was repeated once to improve the purity of monocytes. The monocytes were washed once with RPMI prior to subsequent experiments.
Seahorse Mito Stress Test. Oxygen consumption rate (OCR) of freshly isolated PBMCs was assessed using a Seahorse XFe24 analyzer (Agilent Technologies). Briefly, purified PBMCs were resuspended in Seahorse base medium (Agilent Technologies, supplemented with 1 mM pyruvate, 2 mM glutamine, and 10 mM glucose, pH 7.4), and added 10^6 cells/well at equal volume of 500 μL in a Seahorse 24-well plate. The cells were maintained in a non-CO2 incubator and allowed to settle for 30 minutes at 37° C. Next, the plate was centrifuged at 40 g for 10 minutes at room temperature without application of the brake to help cells attach to the bottom of the plate. Drugs used in the assay: 5 μM oligomycin A (Sigma-Aldrich; Cat. 75351), 3 μM Trifluoromethoxy carbonylcyanide phenylhydrazone (FCCP) (Sigma-Aldrich; Cat. C2920), 1 μM Rotenone (Sigma-Aldrich; Cat. […]), 1 μM Antimycin A (Sigma-Aldrich; Cat. […]), 0.5 mM TMPD (Sigma-Aldrich; Cat. T7394) and 10 mM Ascorbate (Sigma-Aldrich; Cat. 95209).
PBMC and Monocyte Culture. Freshly isolated PBMCs or Monocytes from healthy or HF subjects were resuspended with RPMI medium plus 10% heat inactivated FBS. PBMCs (10^6 cells/well) were seeded in Seahorse 24-well plates and incubated at 37° C. in CO2 incubator with various proinflammatory triggers (Vehicle, MitoDAMP, LPS) and compounds (NR, MCC 950, MitoTempo, or LMT-28). After 4 hours incubation, the plate was centrifuged at 40 g for 10 minutes at room temperature without application of the brake to help cells attach to the bottom of the plate. The cells were washed twice and then brought up to 500 μL using Seahorse base medium (Agilent Technologies, supplemented with 1 mM pyruvate, 2 mM glutamine, and 10 mM glucose, pH 7.4).

[1] = test system: PBMC of Stage D HF subjects; experiment: PBMC basal and maximal OCR of Stage D HF patients pre- and post-oral NR; type: in vivo, human; conditions: oral NR 5-9 days, post vs pre
Protocol: For experiments associated with the oral NR administration (FIGS. 12C-12F), 5 hospitalized Stage D HF patients undergoing advanced heart failure therapy evaluations were put on escalating doses of NR (250 mg twice a day for Day 1, 500 mg twice a day for Day 2, and 1000 mg twice a day from Day 3 on) for 5-9 days. Fasting blood samples were obtained for PBMC isolation at baseline and post-NR administration. Subject 5 was withdrawn due to a change in clinical course deemed to be independent from NR administration. PBMC and Monocyte isolation. 30-60 ml of fasting blood was collected into EDTA-containing Vacutainers (BD Mfr #364606). Blood then was diluted (1:1) with RPMI medium (Corning; Cat #17-105-CV) and applied to Histopaque gradient medium (Sigma-Aldrich; Cat #10771) using SepMate-50 (STEMCELL Technologies), and centrifuged at 1200 g for 10 minutes. Top layer contained the enriched peripheral blood mononuclear cells (PBMCs) which were collected and followed by centrifugation at 300 g for 10 minutes. The pellet was resuspended with ACK lysis buffer (Gibco; Cat. A1049201) and incubated at room temperature for 5 minutes to remove residual red blood cells. […] When available, the remaining cells were used for cytokine mRNA quantitative PCR and in vitro assays. […] Oxygen consumption rate (OCR) of freshly isolated PBMCs was assessed using a Seahorse XFe24 analyzer (Agilent Technologies). […]

[2] = Adverse effects of oral NR in Stage D HF patients; type: in vivo, human; conditions: oral NR 5-9 days, 5 participants
Protocol: For experiments associated with the oral NR administration (FIGS. 12C-12F), 5 hospitalized Stage D HF patients undergoing advanced heart failure therapy evaluations were put on escalating doses of NR (250 mg twice a day for Day 1, 500 mg twice a day for Day 2, and 1000 mg twice a day from Day 3 on) for 5-9 days. Fasting blood samples were obtained for PBMC isolation at baseline and post-NR administration. Subject 5 was withdrawn due to a change in clinical course deemed to be independent from NR administration.

[3] = healthy PBMC, 4-hour 1 mM NR vs vehicle, absence of MitoDAMP

## NC(=O)c1ccc[n+]([C@@H]2O[C@H](CO)[C@@H](O)[C@H]2O)c1 [NR, nicotinamide riboside]
Healthy PBMCs; [3]
  basal OCR: increased
  maximal OCR: increased
Healthy PBMCs; healthy PBMC, 4-hour MitoDAMP with 1 mM NR
  MitoDAMP-induced decline of maximal OCR: partially prevented
Healthy PBMCs; healthy PBMCs, 4-hour 10 ng/mL LPS with 1 mM NR
  maximal OCR: enhancing
[1]
  PBMCs basal OCR: consistent enhancement
  PBMCs maximal OCR: consistent enhancement
[2]
  adverse effect associated with NR: No adverse effect
